Converted amounts (≈) assume the structure as drawn.
How the values were obtained:
[1] = tested on: Staphylococcus aureus; assay: Antibacterial activity against Staphylococcus aureus 209P FDA after 18 hrs by hole-plate agar diffusion method; assay type: functional
[2] = tested on: Bacillus subtilis; assay: Antibacterial activity against Bacillus subtilis ATCC 1633 after 18 hrs by hole-plate agar diffusion method; assay type: functional; conditions: ATCC 1633, 18 h
[3] = tested on: Enterococcus faecalis; assay: Antibacterial activity against Enterococcus faecalis after 18 hrs by hole-plate agar diffusion method; assay type: functional
[4] = tested on: Nannizzia gypsea; assay: Antifungal activity against Microsporum gypseum after 3 to 7 days; assay type: functional
[5] = tested on: Escherichia coli; assay: Antibacterial activity against Escherichia coli PZH 026 B6 after 18 hrs by hole-plate agar diffusion method; assay type: functional
[6] = tested on: Candida albicans; assay: Antifungal activity against Candida albicans PCM 1409 PZH after 3 to 7 days; assay type: functional, organism-based

| MIC [1] | MIC [2] | MIC [3] | MIC [4] | MIC [5] | MIC [6] | Compound |
| --- | --- | --- | --- | --- | --- | --- |
| 25 µM (≈ 10.1 µg/mL) | 19 µM (≈ 7.71 µg/mL) | 25 µM (≈ 10.1 µg/mL) | 123 µM (≈ 49.9 µg/mL) |  |  | CC1CCN(CCCCCCOc2ccc(/C=C/C(=O)c3ccccc3)cc2)CC1 |
|  |  |  | 274 µM (≈ 100 µg/mL) |  |  | O=C(/C=C/c1ccc(OCCCCN2CCOCC2)cc1)c1ccccc1 |
|  |  |  | 264 µM (≈ 100 µg/mL) |  |  | O=C(/C=C/c1ccc(OCCCCCN2CCOCC2)cc1)c1ccccc1 |
|  |  |  | 254 µM (≈ 100 µg/mL) |  |  | O=C(/C=C/c1ccc(OCCCCCCN2CCOCC2)cc1)c1ccccc1 |
|  |  |  | 189 µM (≈ 74.8 µg/mL) |  |  | O=C(/C=C/c1ccc(SCCCCCN2CCOCC2)cc1)c1ccccc1 |
|  |  |  | < 244 µM |  |  | O=C(/C=C/c1ccc(SCCCCCCN2CCOCC2)cc1)c1ccccc1 |
|  |  |  | 268 µM (≈ 100 µg/mL) |  |  | O=C(/C=C/c1ccc(OCCCCCBr)cc1)c1ccccc1 |
| 275 µM (≈ 100 µg/mL) | 275 µM (≈ 100 µg/mL) | 275 µM (≈ 100 µg/mL) |  |  |  | O=C(/C=C/c1ccc(OCCCCN2CCCCC2)cc1)c1ccccc1 |
| 254 µM (≈ 100 µg/mL) | 254 µM (≈ 100 µg/mL) | 254 µM (≈ 100 µg/mL) | 254 µM (≈ 100 µg/mL) | 254 µM (≈ 100 µg/mL) | 127 µM (≈ 50 µg/mL) | O=C(/C=C/c1ccc(SCCCCCN2CCCCC2)cc1)c1ccccc1 |
| 265 µM (≈ 100 µg/mL) | 265 µM (≈ 100 µg/mL) | 265 µM (≈ 100 µg/mL) |  |  |  | O=C(/C=C/c1ccc(OCCCCCN2CCCCC2)cc1)c1ccccc1 |
| 133 µM (≈ 50.2 µg/mL) | 265 µM (≈ 100 µg/mL) | 265 µM (≈ 100 µg/mL) | 265 µM (≈ 100 µg/mL) |  |  | CC1CCN(CCCCOc2ccc(/C=C/C(=O)c3ccccc3)cc2)CC1 |
| 19 µM (≈ 7.44 µg/mL) | 128 µM (≈ 50.1 µg/mL) | 26 µM (≈ 10.2 µg/mL) | 256 µM (≈ 100 µg/mL) |  |  | CC1CCN(CCCCCOc2ccc(/C=C/C(=O)c3ccccc3)cc2)CC1 |
| 256 µM (≈ 100 µg/mL) | 256 µM (≈ 100 µg/mL) | 256 µM (≈ 100 µg/mL) | < 256 µM |  |  | O=C(/C=C/c1ccc(OCCCCCCN2CCCCC2)cc1)c1ccccc1 |
| 21 µM (≈ 9.4 µg/mL) | 209 µM (≈ 93.6 µg/mL) | 209 µM (≈ 93.6 µg/mL) |  |  |  | O=C(/C=C/c1ccc(OCCCCCCCCCCN2CCCCC2)cc1)c1ccccc1 |
| 267 µM (≈ 100 µg/mL) |  |  |  |  |  | O=C(/C=C/c1ccc(SCCCCBr)cc1)c1ccccc1 |
| 25 µM (≈ 10.2 µg/mL) | 25 µM (≈ 10.2 µg/mL) | 25 µM (≈ 10.2 µg/mL) | < 246 µM |  | < 246 µM | O=C(/C=C/c1ccc(SCCCCCCN2CCCCC2)cc1)c1ccccc1 |
| 216 µM (≈ 100 µg/mL) |  |  | 216 µM (≈ 100 µg/mL) |  |  | O=C(/C=C/c1ccc(SCCCCCCCCCCN2CCCCC2)cc1)c1ccccc1 |
|  |  |  | 193 µM (≈ 75.1 µg/mL) |  |  | O=C(/C=C/c1ccc(SCCCCCBr)cc1)c1ccccc1 |
| 26 µM (≈ 9.87 µg/mL) | 26 µM (≈ 9.87 µg/mL) | 264 µM (≈ 100 µg/mL) | 264 µM (≈ 100 µg/mL) |  |  | O=C(/C=C/c1ccc(SCCCCN2CCCCC2)cc1)c1ccccc1 |
| 25 µM (≈ 9.84 µg/mL) | 254 µM (≈ 100 µg/mL) | 254 µM (≈ 100 µg/mL) | 191 µM (≈ 75.2 µg/mL) |  |  | CC1CCN(CCCCSc2ccc(/C=C/C(=O)c3ccccc3)cc2)CC1 |
| 18 µM (≈ 7.34 µg/mL) | 25 µM (≈ 10.2 µg/mL) | 25 µM (≈ 10.2 µg/mL) | 184 µM (≈ 75 µg/mL) |  | 184 µM (≈ 75 µg/mL) | CC1CCN(CCCCCSc2ccc(/C=C/C(=O)c3ccccc3)cc2)CC1 |
| 24 µM (≈ 10.1 µg/mL) | 18 µM (≈ 7.59 µg/mL) | 24 µM (≈ 10.1 µg/mL) | < 237 µM |  | < 237 µM | CC1CCN(CCCCCCSc2ccc(/C=C/C(=O)c3ccccc3)cc2)CC1 |
| 245 µM (≈ 100 µg/mL) |  | 245 µM (≈ 100 µg/mL) |  |  |  | O=C(/C=C/c1ccc(SCCCCCCN2CCNCC2)cc1)c1ccccc1 |
| 263 µM (≈ 100 µg/mL) | 263 µM (≈ 100 µg/mL) | 263 µM (≈ 100 µg/mL) |  |  |  | O=C(/C=C/c1ccc(SCCCCN2CCNCC2)cc1)c1ccccc1 |
|  |  |  | 11 µM (≈ 10.2 µg/mL) |  | 0.5 µM (≈ 0.462 µg/mL) | C[C@@H]1[C@H](O)[C@@H](C)/C=C/C=C/C=C/C=C/C=C/C=C/C=C/[C@H](O[C@@H]2O[C@H](C)[C@@H](O)[C@H](N)[C@@H]2O)C[C@@H]2O[C@](O)(C[C@@H](O)C[C@@H](O)[C@H](O)CC[C@@H](O)C[C@@H](O)CC(=O)O[C@H]1C)C[C@H](O)[C@H]2C(=O)O [AMPHOTERICIN B] |
| 15 µM (≈ 4.85 µg/mL) | 15 µM (≈ 4.85 µg/mL) | 15 µM (≈ 4.85 µg/mL) |  | 15 µM (≈ 4.85 µg/mL) |  | O=C(N[C@H](CO)[C@H](O)c1ccc([N+](=O)[O-])cc1)C(Cl)Cl [CHLORAMPHENICOL] |
